In EP0821955B1 (priority 1996, dated 1998):

Legend:
[1] = molecular target: muscarinic cholinergic receptors; experiment: ^3H-oxotremorine-M binding study; conditions: inhibition of the binding of ^3H-oxotremorine-M; read-out: inhibition constant (Ki)
m4 receptors = m4 receptors (Homo sapiens, UniProt P08173); type: cell-based; conditions: Chinese Hamster Ovary (CHO) m4 cells treated with pertussis toxin
Sequence of m4 receptors (P08173 whole entry): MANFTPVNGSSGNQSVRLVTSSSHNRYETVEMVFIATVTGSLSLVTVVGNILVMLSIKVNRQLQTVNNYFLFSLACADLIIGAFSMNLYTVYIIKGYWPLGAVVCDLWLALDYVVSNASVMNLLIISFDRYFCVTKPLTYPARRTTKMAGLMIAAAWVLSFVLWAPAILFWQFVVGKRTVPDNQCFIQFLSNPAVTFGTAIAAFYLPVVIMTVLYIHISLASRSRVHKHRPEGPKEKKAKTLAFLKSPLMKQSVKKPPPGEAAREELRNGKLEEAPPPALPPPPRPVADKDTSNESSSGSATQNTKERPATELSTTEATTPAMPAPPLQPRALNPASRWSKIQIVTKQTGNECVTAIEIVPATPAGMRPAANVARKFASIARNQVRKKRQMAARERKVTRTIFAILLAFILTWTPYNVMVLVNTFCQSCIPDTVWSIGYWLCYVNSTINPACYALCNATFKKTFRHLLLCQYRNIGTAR

Compound: CCCCCCOc1nsnc1C1=CCCN(C)C1 [xanomeline, 3-(4-hexyloxy-1,2,5-thiadiazol-3-yl)-1,2,5,6-tetrahydro-1-methylpyridine]
- Ki [1]: 2 nM
- formation of cAMP (m4 receptors): efficaciously and potently stimulated the formation of cAMP
